Results from PubChem BioAssay AID1963861 (Molecular Pharmacology Branch, DTP, NCI, 2024).

Test system: 885724-159-R-J1-PDC KRAS PDC multicell spheroid viability
Test: Anticancer human tumor 885724-159-R-J1-PDC patient-derived pancreatic adenocarcinoma cell line growth inhibition [KRAS2]
Details: for IC50: curve of first compound; for viability, T/C: stronger effect = lower value
Method in brief: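 Combination screen of spheroid viability in tumor-cell co-cultures with endothelial (HUVEC) and mesenchymal stem cell stroma. Each agent was tested in half-log dilutions, topping at clinical Cmax or at 10 microM without a known Cmax.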

[1] = second compound 0.1 µM, first compound 0.01 µM
[2] = second compound 0.1 µM, first compound 0.0316 µM
[3] = second compound 0.1 µM, first compound 0.1 µM
[4] = second compound 0.1 µM, first compound 0.316 µM
[5] = second compound 0.1 µM, first compound 1 µM
[6] = second compound 0.1 µM, first compound 3.16 µM
[7] = second compound 0.316 µM, first compound 0.01 µM
[8] = second compound 0.316 µM, first compound 0.0316 µM
[9] = second compound 0.316 µM, first compound 0.1 µM
[10] = second compound 0.316 µM, first compound 0.316 µM
[11] = second compound 0.316 µM, first compound 1 µM
[12] = second compound 0.316 µM, first compound 3.16 µM
[13] = second compound 1 µM, first compound 0.01 µM
[14] = second compound 1 µM, first compound 0.0316 µM
[15] = second compound 1 µM, first compound 0.1 µM
[16] = second compound 1 µM, first compound 0.316 µM
[17] = second compound 1 µM, first compound 1 µM
[18] = second compound 1 µM, first compound 3.16 µM
[19] = second compound 3.16 µM, first compound 0.01 µM
[20] = second compound 3.16 µM, first compound 0.0316 µM
[21] = second compound 3.16 µM, first compound 0.1 µM
[22] = second compound 3.16 µM, first compound 0.316 µM
[23] = second compound 3.16 µM, first compound 1 µM
[24] = second compound 3.16 µM, first compound 3.16 µM
[25] = second compound 10 µM, first compound 0.01 µM
[26] = second compound 10 µM, first compound 0.0316 µM
[27] = second compound 10 µM, first compound 0.1 µM
[28] = second compound 10 µM, first compound 0.316 µM
[29] = second compound 10 µM, first compound 1 µM
[30] = second compound 10 µM, first compound 3.16 µM
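Note: spheroids exposed to agents for 7 days before readout.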

CC(=O)OC12COC1CC(O)C1(C)C(=O)C(O)C3=C(C)C(OC(=O)C(O)C(NC(=O)OC(C)(C)C)c4ccccc4)CC(O)(C(OC(=O)c4ccccc4)C21)C3(C)C (stereo not given) + C=CC(=O)N1CCN(c2nc(=O)n(-c3c(C)ccnc3C(C)C)c3nc(-c4c(O)cccc4F)c(F)cc23)C(C)C1
IC50 (second compound 0.1 µM): > 3160 nM | IC50 (second compound 0.316 µM): > 3160 nM | IC50 (second compound 1 µM): > 3160 nM | IC50 (second compound 3.16 µM): > 3160 nM | IC50 (second compound 10 µM): > 3160 nM | viability, T/C [1]: 91.7% | viability, T/C [2]: 104% | viability, T/C [3]: 95.5% | viability, T/C [4]: 107% | viability, T/C [5]: 110% | viability, T/C [6]: 112% | viability, T/C [7]: 94.6% | viability, T/C [8]: 102% | viability, T/C [9]: 104% | viability, T/C [10]: 112% | viability, T/C [11]: 112% | viability, T/C [12]: 112% | viability, T/C [13]: 105% | viability, T/C [14]: 119% | viability, T/C [15]: 114% | viability, T/C [16]: 103% | viability, T/C [17]: 119% | viability, T/C [18]: 125% | viability, T/C [19]: 99.1% | viability, T/C [20]: 114% | viability, T/C [21]: 113% | viability, T/C [22]: 112% | viability, T/C [23]: 111% | viability, T/C [24]: 121% | viability, T/C [25]: 80.8% | viability, T/C [26]: 84.1% | viability, T/C [27]: 87.7% | viability, T/C [28]: 86% | viability, T/C [29]: 86.6% | viability, T/C [30]: 78.3%

CC1(C)CCC(CN2CCN(c3ccc(C(=O)NS(=O)(=O)c4ccc(NCC5CCOCC5)c([N+](=O)[O-])c4)c(Oc4cnc5[nH]ccc5c4)c3)CC2)=C(c2ccc(Cl)cc2)C1 + CC1OCC2(CCN(c3cnc(Sc4ccnc(N)c4Cl)c(N)n3)CC2)C1N
IC50 (second compound 0.1 µM): 4310 nM | IC50 (second compound 0.316 µM): 3450 nM | IC50 (second compound 1 µM): 2850 nM | IC50 (second compound 3.16 µM): 1620 nM | IC50 (second compound 10 µM): 1210 nM | viability, T/C [2]: 88% | viability, T/C [3]: 88.3% | viability, T/C [4]: 89% | viability, T/C [5]: 74.8% | viability, T/C [6]: 58.2% | viability, T/C (second compound 0.1 µM, first compound 10 µM): 29.7% | viability, T/C [8]: 82.3% | viability, T/C [9]: 83.8% | viability, T/C [10]: 75.4% | viability, T/C [11]: 74.2% | viability, T/C [12]: 51.7% | viability, T/C (second compound 0.316 µM, first compound 10 µM): 22.1% | viability, T/C [14]: 77.8% | viability, T/C [15]: 75.2% | viability, T/C [16]: 68.5% | viability, T/C [17]: 62.2% | viability, T/C [18]: 51.1% | viability, T/C (second compound 1 µM, first compound 10 µM): 17.6% | viability, T/C [20]: 64.1% | viability, T/C [21]: 63.7% | viability, T/C [22]: 63.2% | viability, T/C [23]: 57.4% | viability, T/C [24]: 39.7% | viability, T/C (second compound 3.16 µM, first compound 10 µM): 12% | viability, T/C [26]: 58% | viability, T/C [27]: 58.3% | viability, T/C [28]: 60.5% | viability, T/C [29]: 53.5% | viability, T/C [30]: 30.4% | viability, T/C (second compound 10 µM, first compound 10 µM): 3.18%

CCN1CCN(Cc2ccc(Nc3ncc(F)c(-c4cc(F)c5nc(C)n(C(C)C)c5c4)n3)nc2)CC1 + C=CC(=O)N1CCN(c2nc(=O)n(-c3c(C)ccnc3C(C)C)c3nc(-c4c(O)cccc4F)c(F)cc23)C(C)C1
IC50 (second compound 0.1 µM): > 1000 nM | IC50 (second compound 0.316 µM): > 1000 nM | IC50 (second compound 1 µM): > 1000 nM | IC50 (second compound 3.16 µM): > 1000 nM | IC50 (second compound 10 µM): > 1000 nM | viability, T/C (second compound 0.1 µM, first compound 0.00316 µM): 116% | viability, T/C [1]: 98.6% | viability, T/C [2]: 99.3% | viability, T/C [3]: 92.6% | viability, T/C [4]: 87.2% | viability, T/C [5]: 92.6% | viability, T/C (second compound 0.316 µM, first compound 0.00316 µM): 114% | viability, T/C [7]: 104% | viability, T/C [8]: 102% | viability, T/C [9]: 95.1% | viability, T/C [10]: 101% | viability, T/C [11]: 107% | viability, T/C (second compound 1 µM, first compound 0.00316 µM): 112% | viability, T/C [13]: 116% | viability, T/C [14]: 106% | viability, T/C [15]: 101% | viability, T/C [16]: 106% | viability, T/C [17]: 104% | viability, T/C (second compound 3.16 µM, first compound 0.00316 µM): 114% | viability, T/C [19]: 122% | viability, T/C [20]: 104% | viability, T/C [21]: 101% | viability, T/C [22]: 110% | viability, T/C [23]: 114% | viability, T/C (second compound 10 µM, first compound 0.00316 µM): 72.6% | viability, T/C [25]: 84.2% | viability, T/C [26]: 84.8% | viability, T/C [27]: 85% | viability, T/C [28]: 88.8% | viability, T/C [29]: 80.2%
